Data taken from PubChem BioAssay (NCI).
Values joined by “and” are separate entries in the source; they are usually repeats but may differ in a detail not shown here. Equal values may be shown once.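 Tested at 5 concentrations; 48 h exposure; 96-well plates; endpoints linearly interpolated, else capped at highest concentration. GI50: concentration for 50% inhibition of growth. TGI marks complete inhibition of growth.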

Key:
Assay in all cases: DTP human tumour cell line panel, 48 h
SNB-19 CNS = tested on: SNB-19 CNS
HCT-15 colon = tested on: HCT-15 colon
IGROV1 ovarian = tested on: IGROV1 ovarian
HL-60(TB) leukemia = tested on: HL-60(TB) leukemia
UACC-257 melanoma = tested on: UACC-257 melanoma
MALME-3M melanoma = tested on: MALME-3M melanoma
MOLT-4 leukemia = tested on: MOLT-4 leukemia
K-562 leukemia = tested on: K-562 leukemia
HOP-62 NSCLC = tested on: HOP-62 NSCLC
MDA-N = tested on: MDA-N

Row | Structure (SMILES) | TGI (SNB-19 CNS) | GI50 (HCT-15 colon) | TGI (HCT-15 colon) | TGI (IGROV1 ovarian) | GI50 (HL-60(TB) leukemia) | TGI (HL-60(TB) leukemia) | GI50 (UACC-257 melanoma) | TGI (UACC-257 melanoma) | TGI (MALME-3M melanoma) | TGI (MOLT-4 leukemia) | TGI (K-562 leukemia) | GI50 (SNB-19 CNS) | GI50 (MOLT-4 leukemia) | GI50 (HOP-62 NSCLC) | TGI (HOP-62 NSCLC) | GI50 (K-562 leukemia) | TGI (MDA-N)
1 | Cc1c2cc[n+](C)cc2c(C)c2c1[nH]c1ccc(OCC(F)(F)F)cc12 | 3.02 µM | 44.6 µM and > 100 µM | > 100 µM | > 100 µM | 5.13 µM and 16.4 µM | > 70.4 µM | 4.02 µM and 14.8 µM | 20 µM and > 100 µM | 8.25 µM | 11.1 µM and > 55.9 µM | > 56.6 µM | – | – | – | – | – | –
2 | COc1cccc(C2C(C#N)=C(N)Oc3cc(OCCCCCC[P+](c4ccccc4)(c4ccccc4)c4ccccc4)ccc32)c1 (stereo not given) | 1.44 µM | 2.24 µM | 6.14 µM | – | 0.263 µM | 0.738 µM | – | – | – | 3.96 µM | > 23.7 µM | 0.366 µM | 1.22 µM | 1.62 µM | 4.16 µM | 0.334 µM | –
3 | CCC1OC2(C)CC(C#N)(C#N)C1(C#N)C(=N)O2 (stereo not given) | > 100 µM | – | – | > 100 µM | – | > 100 µM | – | > 100 µM | > 100 µM | > 100 µM | > 100 µM | – | – | – | – | – | > 100 µM
4 | CN(C)Cc1cc(/C=C/C(=O)c2ccc(Br)cc2)cc(CN(C)C)c1O | 48.2 µM | – | – | 23.4 µM | – | 50.6 µM | – | 33.7 µM | 31.6 µM | 42.9 µM | > 100 µM | – | – | – | > 100 µM | – | 32.6 µM
5 | O=c1cc(-c2ccccc2)oc2cc(OCCCCCCCCCCOc3ccc4c(=O)cc(-c5ccccc5)oc4c3)ccc12 | > 100 µM | – | > 100 µM | > 100 µM | – | > 100 µM | – | > 100 µM | > 100 µM | > 100 µM | > 100 µM | – | – | – | > 100 µM | – | –
6 | COc1ccc(-c2nc(-c3cnccn3)n(C/C=C/c3ccccc3)n2)cc1 | > 100 µM | – | > 100 µM | > 100 µM | – | > 100 µM | – | > 100 µM | – | > 100 µM | > 100 µM | – | – | – | 60.3 µM | – | > 100 µM
7 | C=CC(C)(C)/C(=C\CO[Si](C(C)C)(C(C)C)C(C)C)C(=O)N(C)c1ccccc1I | 28.1 µM | – | 30.8 µM | 30.3 µM | – | 11.4 µM | – | 28.7 µM | – | 25.2 µM | – | – | – | – | 35.8 µM | – | 33.6 µM
8 | Oc1c(NCn2nc(CCCCCCCCc3nn(CNc4ccc5ccccc5c4O)c(=S)o3)oc2=S)ccc2ccccc12 | > 100 µM | – | > 100 µM | > 100 µM | – | – | – | > 100 µM | > 100 µM | > 100 µM | > 100 µM | – | – | – | > 100 µM | – | 48.5 µM
9 | Cc1cc(C)c(S(=O)(=O)N(CCCCCN)OCCCN)c(C)c1 | 37.6 µM | – | – | 30 µM | – | – | – | 32 µM | 40.2 µM | 33 µM | 60.8 µM | – | – | – | 32.3 µM | – | 31.4 µM
10 | C/C(N=NS(=O)(=O)c1c(C)cc(C)cc1C)=C1\C=CC=CN1O | > 100 µM | – | > 100 µM | > 100 µM | – | > 100 µM | – | > 100 µM | – | > 100 µM | > 100 µM | – | – | – | > 100 µM | – | –
11 | N/C(=N\N=C/c1c(O)cc(O)cc1O)NO | > 100 µM | – | > 100 µM | > 100 µM | – | > 76.9 µM | – | > 100 µM | > 100 µM | > 100 µM | > 100 µM | – | – | – | > 100 µM | – | –
12 | CC1(C)CC(=O)C2=C(C1)NC(=S)C(C#N)C2c1ccccc1 (stereo not given) | > 100 µM | – | > 100 µM | > 100 µM | – | > 100 µM | – | > 100 µM | > 100 µM | – | > 100 µM | – | – | – | > 100 µM | – | > 100 µM
13 | CC(=O)N1CCOC12N=NC(C)(C)O2 (stereo not given) | > 100 µM | – | > 100 µM | > 100 µM | – | – | – | > 100 µM | > 100 µM | > 100 µM | > 100 µM | – | – | – | > 100 µM | – | > 100 µM
14 | COc1ccc(NCn2nc(CCCCCCCCc3nn(CNc4ccc(OC)cc4)c(=S)o3)oc2=S)cc1 | > 100 µM | – | > 100 µM | – | – | – | – | > 100 µM | > 100 µM | > 100 µM | > 100 µM | – | – | – | > 100 µM | – | > 100 µM
15 | CC(C)=CCNc1ncnc2c1ncn2CCC(=O)O | > 100 µM | – | > 100 µM | > 100 µM | – | > 100 µM | – | – | > 100 µM | > 100 µM | > 100 µM | – | – | – | > 100 µM | – | > 100 µM
16 | C=C1C(=O)OC2C[C@@]3(C)CCCC(=C)C3CC12 (stereo not given in full) | 23.4 µM | – | 24.7 µM | 33.3 µM | – | – | – | 22 µM | 13.4 µM | – | – | – | – | – | 34.9 µM | – | –
17 | CN1Cc2ccccc2C2(COc3ccccc3C2=O)C1 (stereo not given) | > 100 µM | – | > 100 µM | > 100 µM | – | > 100 µM | – | > 100 µM | > 100 µM | > 100 µM | > 100 µM | – | – | – | > 100 µM | – | –
18 | C/C(=N\Nc1nc2cc(F)ccc2s1)c1ccccn1 | > 41.7 µM | – | 2.12 µM | – | – | – | – | > 24.4 µM | 23 µM | > 100 µM | > 43.8 µM | – | – | – | > 21.9 µM | – | –
19 | CC(C)(C)OC(=O)NCC(c1c[nH]c2ccccc12)c1c[nH]c2ccccc12 | 31.1 µM | – | 53.5 µM | 26.3 µM | – | 31.8 µM | – | 28.6 µM | 33.2 µM | 29.9 µM | – | – | – | – | 37 µM | – | 35.3 µM
20 | CCOC(=O)c1cnc2n(c1=O)[C@H]1CCCC[C@@H]1N2 | > 100 µM | – | > 100 µM | > 100 µM | – | > 100 µM | – | > 100 µM | > 100 µM | > 100 µM | > 100 µM | – | – | – | – | – | > 100 µM
21 | COc1cc(/C=C2\N=C(c3ccccc3)N(c3cc4cc(Sc5ccccc5)ccc4[nH]3)C2=O)ccc1O | > 50 µM | – | > 50 µM | > 50 µM | – | 4.19 µM | – | > 50 µM | > 50 µM | > 50 µM | > 50 µM | – | – | – | – | – | –
22 | Cc1ccc(N2Cc3c(ccc4ccccc34)OP2(=S)N2CCCC2)cc1 (stereo not given) | > 100 µM | – | > 100 µM | > 100 µM | – | > 100 µM | – | > 100 µM | > 100 µM | > 100 µM | > 100 µM | – | – | – | > 100 µM | – | –
23 | O=Cn1c2ccccc2c2ccccc21 | > 100 µM | – | > 100 µM | > 100 µM | – | > 100 µM | – | > 100 µM | > 100 µM | > 100 µM | > 100 µM | – | – | – | > 100 µM | – | –
24 | Cc1c2oc(=O)c(C#N)cc2c2ccccn12 | > 100 µM | – | > 100 µM | > 100 µM | – | > 100 µM | – | > 100 µM | > 100 µM | > 100 µM | > 100 µM | – | – | – | – | – | > 100 µM
